# Test results published in PubChem BioAssay (NCI).
#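 Values below derive from 48-hour exposures of cells grown in 96-well plates, with endpoints linearly interpolated between the two concentrations bracketing the appropriate inhibition level. Abbreviation: GI50, concentration required for 50% inhibition of growth. TGI denotes the concentration required for complete inhibition of growth.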
# How the values were obtained:
# Assay in all cases: DTP human tumour cell line panel, 48 h
# A549 NSCLC = system: A549 NSCLC
# PC-3 prostate = system: PC-3 prostate
# RXF 393 renal = system: RXF 393 renal
# SK-MEL-28 melanoma = system: SK-MEL-28 melanoma
# CCRF-CEM leukemia = system: CCRF-CEM leukemia
# SF-539 CNS = system: SF-539 CNS
# SNB-19 CNS = system: SNB-19 CNS
# HCT-116 colon = system: HCT-116 colon
# MDA-MB-435 = system: MDA-MB-435
# OVCAR-5 ovarian = system: OVCAR-5 ovarian
# U251 CNS = system: U251 CNS
# HOP-62 NSCLC = system: HOP-62 NSCLC
# HL-60(TB) leukemia = system: HL-60(TB) leukemia
# NCI-H522 lung = system: NCI-H522 lung
# HCT-15 colon = system: HCT-15 colon
# SF-295 CNS = system: SF-295 CNS
# LOX IMVI melanoma = system: LOX IMVI melanoma
# DU-145 prostate = system: DU-145 prostate
# HCC-2998 colon = system: HCC-2998 colon
# A498 renal = system: A498 renal
# OVCAR-4 ovarian = system: OVCAR-4 ovarian
# UACC-257 melanoma = system: UACC-257 melanoma
# SK-MEL-5 melanoma = system: SK-MEL-5 melanoma
# SK-OV-3 ovarian = system: SK-OV-3 ovarian
# IGROV1 ovarian = system: IGROV1 ovarian
# MOLT-4 leukemia = system: MOLT-4 leukemia
# NCI-H460 lung = system: NCI-H460 lung
# MCF7 breast = system: MCF7 breast
# NCI/ADR-RES ovarian = system: NCI/ADR-RES ovarian
# CAKI-1 renal = system: CAKI-1 renal
# MALME-3M melanoma = system: MALME-3M melanoma
# COLO 205 colon = system: COLO 205 colon
# HOP-92 NSCLC = system: HOP-92 NSCLC
# BT-549 breast = system: BT-549 breast
# SN12C renal = system: SN12C renal
# SNB-75 CNS = system: SNB-75 CNS
# HS 578T breast = system: HS 578T breast
# ACHN renal = system: ACHN renal
# K-562 leukemia = system: K-562 leukemia
# EKVX NSCLC = system: EKVX NSCLC
# UACC-62 melanoma = system: UACC-62 melanoma
# SW-620 colon = system: SW-620 colon
# MDA-MB-231 breast = system: MDA-MB-231 breast
# SF-268 CNS = system: SF-268 CNS
# 786-0 renal = system: 786-0 renal
# OVCAR-3 ovarian = system: OVCAR-3 ovarian
# TK-10 renal = system: TK-10 renal
# KM12 colon = system: KM12 colon
# HT29 colon = system: HT29 colon
# OVCAR-8 ovarian = system: OVCAR-8 ovarian
# NCI-H23 lung = system: NCI-H23 lung
# T-47D breast = system: T-47D breast
# M14 melanoma = system: M14 melanoma
# RPMI-8226 leukemia = system: RPMI-8226 leukemia
# UO-31 renal = system: UO-31 renal
# SK-MEL-2 melanoma = system: SK-MEL-2 melanoma
# NCI-H226 lung = system: NCI-H226 lung
# SR leukemia = system: SR leukemia
# MDA-N = system: MDA-N
smiles,measurement,setting,value
CCCCCCCCCCCCNC(=O)[C@H]1CSC(c2ccc(OC)c(F)c2)N1 (stereo partly drawn),GI50,A549 NSCLC,1.89 µM
same,TGI,A549 NSCLC,3.69 µM
same,GI50,PC-3 prostate,0.38 µM
same,TGI,PC-3 prostate,1.43 µM
same,GI50,RXF 393 renal,0.867 µM
same,TGI,RXF 393 renal,2.2 µM
same,GI50,SK-MEL-28 melanoma,0.342 µM
same,TGI,SK-MEL-28 melanoma,1.11 µM
same,GI50,CCRF-CEM leukemia,0.225 µM
same,TGI,CCRF-CEM leukemia,0.579 µM
same,GI50,SF-539 CNS,0.785 µM
same,TGI,SF-539 CNS,2.14 µM
same,GI50,SNB-19 CNS,1.95 µM
same,TGI,SNB-19 CNS,3.66 µM
same,GI50,HCT-116 colon,0.421 µM
same,TGI,HCT-116 colon,1.41 µM
same,GI50,MDA-MB-435,0.193 µM
same,TGI,MDA-MB-435,0.385 µM
same,GI50,OVCAR-5 ovarian,1.4 µM
same,TGI,OVCAR-5 ovarian,2.72 µM
same,GI50,U251 CNS,1.89 µM
same,TGI,U251 CNS,3.66 µM
same,GI50,HOP-62 NSCLC,0.273 µM
same,TGI,HOP-62 NSCLC,0.748 µM
same,GI50,HL-60(TB) leukemia,1.63 µM
same,TGI,HL-60(TB) leukemia,3.59 µM
same,GI50,NCI-H522 lung,1.82 µM
same,TGI,NCI-H522 lung,3.64 µM
same,GI50,HCT-15 colon,1.78 µM
same,TGI,HCT-15 colon,3.39 µM
same,GI50,SF-295 CNS,1.72 µM
same,TGI,SF-295 CNS,3.25 µM
same,GI50,LOX IMVI melanoma,0.19 µM
same,TGI,LOX IMVI melanoma,0.398 µM
same,GI50,DU-145 prostate,0.888 µM
same,TGI,DU-145 prostate,2.46 µM
same,GI50,HCC-2998 colon,1.75 µM
same,TGI,HCC-2998 colon,3.33 µM
same,GI50,A498 renal,1.78 µM
same,TGI,A498 renal,3.28 µM
same,GI50,OVCAR-4 ovarian,0.699 µM
same,TGI,OVCAR-4 ovarian,1.99 µM
same,GI50,UACC-257 melanoma,1.62 µM
same,TGI,UACC-257 melanoma,3.13 µM
same,GI50,SK-MEL-5 melanoma,1.27 µM
same,TGI,SK-MEL-5 melanoma,2.57 µM
same,GI50,SK-OV-3 ovarian,1.96 µM
same,TGI,SK-OV-3 ovarian,3.43 µM
same,GI50,IGROV1 ovarian,0.325 µM
same,TGI,IGROV1 ovarian,0.902 µM
same,GI50,MOLT-4 leukemia,0.214 µM
same,TGI,MOLT-4 leukemia,0.469 µM
same,GI50,NCI-H460 lung,1.74 µM
same,TGI,NCI-H460 lung,3.63 µM
same,GI50,MCF7 breast,1.55 µM
same,TGI,MCF7 breast,3.31 µM
same,GI50,NCI/ADR-RES ovarian,1.61 µM
same,TGI,NCI/ADR-RES ovarian,3.52 µM
same,GI50,CAKI-1 renal,1.56 µM
same,TGI,CAKI-1 renal,2.94 µM
same,GI50,MALME-3M melanoma,1.78 µM
same,TGI,MALME-3M melanoma,3.24 µM
same,GI50,COLO 205 colon,1.94 µM
same,TGI,COLO 205 colon,3.84 µM
same,GI50,HOP-92 NSCLC,1.69 µM
same,TGI,HOP-92 NSCLC,3.24 µM
same,GI50,BT-549 breast,0.37 µM
same,TGI,BT-549 breast,0.912 µM
same,GI50,SN12C renal,0.841 µM
same,TGI,SN12C renal,2.14 µM
same,GI50,SNB-75 CNS,0.468 µM
same,TGI,SNB-75 CNS,1.01 µM
same,GI50,HS 578T breast,0.241 µM
same,TGI,HS 578T breast,0.577 µM
same,GI50,ACHN renal,1.63 µM
same,TGI,ACHN renal,3 µM
same,GI50,K-562 leukemia,0.215 µM
same,TGI,K-562 leukemia,0.938 µM
same,GI50,EKVX NSCLC,0.678 µM
same,TGI,EKVX NSCLC,2 µM
same,GI50,UACC-62 melanoma,1.45 µM
same,TGI,UACC-62 melanoma,2.83 µM
same,GI50,SW-620 colon,0.87 µM
same,TGI,SW-620 colon,2.81 µM
same,GI50,MDA-MB-231 breast,0.225 µM
same,TGI,MDA-MB-231 breast,0.55 µM
same,GI50,SF-268 CNS,0.216 µM
same,TGI,SF-268 CNS,0.455 µM
same,GI50,786-0 renal,1.63 µM
same,TGI,786-0 renal,3.08 µM
same,GI50,OVCAR-3 ovarian,1.45 µM
same,TGI,OVCAR-3 ovarian,3.26 µM
same,GI50,TK-10 renal,1.95 µM
same,TGI,TK-10 renal,3.48 µM
same,GI50,KM12 colon,0.335 µM
same,TGI,KM12 colon,1.14 µM
same,GI50,HT29 colon,0.837 µM
same,TGI,HT29 colon,2.42 µM
same,GI50,OVCAR-8 ovarian,1.18 µM
same,TGI,OVCAR-8 ovarian,4.13 µM
same,GI50,NCI-H23 lung,1.6 µM
same,TGI,NCI-H23 lung,3.27 µM
same,GI50,T-47D breast,1.75 µM
same,TGI,T-47D breast,3.66 µM
same,GI50,M14 melanoma,0.191 µM
same,TGI,M14 melanoma,0.374 µM
same,GI50,RPMI-8226 leukemia,2.06 µM
same,TGI,RPMI-8226 leukemia,4.62 µM
same,GI50,UO-31 renal,1.63 µM
same,TGI,UO-31 renal,3.01 µM
same,GI50,SK-MEL-2 melanoma,1.77 µM
same,TGI,SK-MEL-2 melanoma,3.41 µM
same,GI50,NCI-H226 lung,1.42 µM
same,TGI,NCI-H226 lung,3.21 µM
same,GI50,SR leukemia,0.324 µM
same,TGI,SR leukemia,1.59 µM
C=CC(C)(C)n1cc(C2=C(O)C(=O)C(c3cn(C(C)(C)C=C)c4ccccc34)=C(OC(C)=O)C2=O)c2ccccc21,TGI,PC-3 prostate,1.99 µM
same,TGI,RXF 393 renal,2.38 µM
same,TGI,SK-MEL-28 melanoma,2.5 µM
same,TGI,MDA-MB-435,1.74 µM
same,TGI,OVCAR-5 ovarian,3.08 µM
same,TGI,HOP-62 NSCLC,1.94 µM
same,TGI,NCI-H522 lung,2.97 µM
same,TGI,SF-295 CNS,1.88 µM
same,TGI,LOX IMVI melanoma,1.72 µM
same,TGI,DU-145 prostate,2.23 µM
same,TGI,HCC-2998 colon,2.16 µM
same,TGI,A498 renal,2.1 µM
same,TGI,OVCAR-4 ovarian,2.64 µM
same,TGI,UACC-257 melanoma,2.19 µM
same,TGI,SK-MEL-5 melanoma,1.87 µM
same,TGI,MDA-N,1.99 µM
same,TGI,SK-OV-3 ovarian,2.85 µM
same,TGI,IGROV1 ovarian,1.65 µM
same,TGI,CAKI-1 renal,2.28 µM
same,TGI,MALME-3M melanoma,3.06 µM
same,TGI,COLO 205 colon,3.07 µM
same,TGI,HOP-92 NSCLC,1.95 µM
same,TGI,SNB-75 CNS,1.55 µM
same,TGI,ACHN renal,2.55 µM
same,TGI,K-562 leukemia,2.17 µM
same,TGI,UACC-62 melanoma,2.18 µM
same,TGI,MDA-MB-231 breast,2.63 µM
same,TGI,786-0 renal,2.8 µM
same,TGI,OVCAR-3 ovarian,2.25 µM
same,TGI,KM12 colon,1.97 µM
same,TGI,RPMI-8226 leukemia,3.88 µM
same,TGI,UO-31 renal,2.3 µM
